Experiments:
Smad2 phosphorylation = assay: Western blot of TGF-β1-induced Smad2 phosphorylation in vitro; assay type: cell-based, rat
Protocol: NRK52E and NRK49F cells were cultured in DMEM-Ham's medium supplemented with 10% fetal bovine serum. The cells reached at approximately 50% confluence were used for in vitro experiments. Cells were serum-starved for 12 h, and randomized into 6 groups: (1) Controls; (2) GQ-5 only; (3) TGF-β1 only; (4) TGF-β1+GQ-5 0.1 μM; (5) TGF-β1+GQ-5 0.5 μM; (6) TGF-β1+GQ-5 2.5 μM.
(2) GQ-5 only: pre-treated with GQ-5 (2.5 μM) for 1 h, followed with DMEM for 1 h
(3) TGF-β1 only: pre-treated with DMSO (0.1%) for 1 h, followed with TGF-β1 (10 ng/ml) for 1 h
(4) TGF-β1+GQ-5 0.1 μM: pre-treated with GQ-5 (0.1 μM) for 1 h, followed with TGF-β1 (10 ng/ml) for 1 h
(5) TGF-β1+GQ-5 0.5 μM: pre-treated with GQ-5 (0.5 μM) for 1 h, followed with TGF-β1 (10 ng/ml) for 1 h
(6) TGF-β1+GQ-5 2.5 μM: pre-treated with GQ-5 (2.5 μM) for 1 h, followed with TGF-β1 (10 ng/ml) for 1 h.
GQ-5 was dissolved in DMSO. Cells were treated as described. Cell lysates were immunoblotted with antibodies against phospho-Smad3, Smad3, phospho-Smad2, Smad2.
NRK52E cells were cultured in DMEM-Ham's medium supplemented with 10% fetal bovine serum. The cells reached at approximately 50% confluence were used for in vitro experiments. Cells were serum-starved for 12 h, and randomized into 8 groups: (1) Controls; (2) GQ-5 only; (3) TGF-β1 0.5 h; (4) TGF-β1 0.5 h+GQ-5; (5) TGF-β1 1.0 h; (6) TGF-β1 1.0 h+GQ-5; (7) TGF-β1 3.0 h; (8) TGF-β1 3.0 h+GQ-5; […]

Smad4 = assay: Western blot of Smad4 expression in UUO kidneys; assay type: in vivo, rat; conditions: UUO rats, GQ-5 40 mg/kg daily i.p. right after UUO, sacrificed day 14
Protocol: Male Sprague-Dawley rats with body weight 200 to 250 g were randomized into 3 groups (n=6 in each group): (1) sham operated rats; (2) UUO rats; (3) UUO+GQ-5 rats.
GQ-5 was dissolved in 5% propylene glycol.
(3) UUO+GQ-5 rats: daily intraperitoneal injection of GQ-5 (40 mg/kg body weight) right after UUO;
UUO was performed using an established protocol as described. GQ-5 was dissolved in 5% propylene glycol. Rats were administrated with GQ-5 as described before. All the rats were sacrificed 14 days after UUO. Western blot analyses were performed to examine the Smad4, Smad7 expression and p38, PI3K, ERK phosphorylation.

CCCCCC/C=C\CCCCCCCc1cccc(O)c1O [GQ-5, 3-[(Z)-pentadec-8-enyl]catechol]
did not affect: TGF-β1-induced Smad2 phosphorylation (Smad2 phosphorylation; NRK52E and NRK49F cells, GQ-5 0.1, 0.5, 2.5 μM pre-treated 1 h, TGF-β1 10 ng/ml 1 h) | TGF-β1-induced Smad2 phosphorylation, time course (Smad2 phosphorylation; NRK52E cells, GQ-5 2.5 μM pre-treated 1 h, TGF-β1 10 ng/ml 0.5, 1.0, 3.0 h) | expression of Smad4 (Smad4)
